Measurements from patent publication US20220409598A1, “METHOD OF CONTROLLING BLOOD SUGAR LEVEL AND TREATMENT OF DIABETES AND RELATED CONDITIONS” (ILDONG PHARMACEUTICAL CO., LTD., priority 2021, published 2022).
Where two headings read alike, the source gives them in different places.

Experiments:
[1] = tested on: NRF2; assay: Transcription factor profiling in 2D HepG2 cell, NRF2; type: cell-based; conditions: 10 μM for 24 hours
[2] = HμRELTox assay, hepatotoxic response; type: cell-based; conditions: read-out: TC50 (the source's name)
[3] = cited from earlier work; for Cmax: fasiglifam, Clin. Pharmacol. Ther. 92, 29-39, read-out: Human Cmax (maximum plasma concentration at steady state); for Cpss, max: human
[4] = biological target: BSEP (bile salt export pump) (Homo sapiens, UniProt O95342); assay: Human transporter inhibition study, BSEP; type: biochemical; conditions: in vitro inhibition; read-out: BSEP IC50
From the text: DILI risk may be due to potency of BSEP inhibition in combination with in vivo drug exposure (e.g., Cmax or Css (plasma concentration at steady state)).
(§1) • (a) Human Transporter Inhibition Study and Safety Margin

[5] = biological target: T1, MRP4 (Homo sapiens, UniProt O15439); assay: Human transporter inhibition study, MRP4; type: biochemical; conditions: read-out: MRP4 in vitro inhibition IC50
T1 sequence (O15439 1-1325): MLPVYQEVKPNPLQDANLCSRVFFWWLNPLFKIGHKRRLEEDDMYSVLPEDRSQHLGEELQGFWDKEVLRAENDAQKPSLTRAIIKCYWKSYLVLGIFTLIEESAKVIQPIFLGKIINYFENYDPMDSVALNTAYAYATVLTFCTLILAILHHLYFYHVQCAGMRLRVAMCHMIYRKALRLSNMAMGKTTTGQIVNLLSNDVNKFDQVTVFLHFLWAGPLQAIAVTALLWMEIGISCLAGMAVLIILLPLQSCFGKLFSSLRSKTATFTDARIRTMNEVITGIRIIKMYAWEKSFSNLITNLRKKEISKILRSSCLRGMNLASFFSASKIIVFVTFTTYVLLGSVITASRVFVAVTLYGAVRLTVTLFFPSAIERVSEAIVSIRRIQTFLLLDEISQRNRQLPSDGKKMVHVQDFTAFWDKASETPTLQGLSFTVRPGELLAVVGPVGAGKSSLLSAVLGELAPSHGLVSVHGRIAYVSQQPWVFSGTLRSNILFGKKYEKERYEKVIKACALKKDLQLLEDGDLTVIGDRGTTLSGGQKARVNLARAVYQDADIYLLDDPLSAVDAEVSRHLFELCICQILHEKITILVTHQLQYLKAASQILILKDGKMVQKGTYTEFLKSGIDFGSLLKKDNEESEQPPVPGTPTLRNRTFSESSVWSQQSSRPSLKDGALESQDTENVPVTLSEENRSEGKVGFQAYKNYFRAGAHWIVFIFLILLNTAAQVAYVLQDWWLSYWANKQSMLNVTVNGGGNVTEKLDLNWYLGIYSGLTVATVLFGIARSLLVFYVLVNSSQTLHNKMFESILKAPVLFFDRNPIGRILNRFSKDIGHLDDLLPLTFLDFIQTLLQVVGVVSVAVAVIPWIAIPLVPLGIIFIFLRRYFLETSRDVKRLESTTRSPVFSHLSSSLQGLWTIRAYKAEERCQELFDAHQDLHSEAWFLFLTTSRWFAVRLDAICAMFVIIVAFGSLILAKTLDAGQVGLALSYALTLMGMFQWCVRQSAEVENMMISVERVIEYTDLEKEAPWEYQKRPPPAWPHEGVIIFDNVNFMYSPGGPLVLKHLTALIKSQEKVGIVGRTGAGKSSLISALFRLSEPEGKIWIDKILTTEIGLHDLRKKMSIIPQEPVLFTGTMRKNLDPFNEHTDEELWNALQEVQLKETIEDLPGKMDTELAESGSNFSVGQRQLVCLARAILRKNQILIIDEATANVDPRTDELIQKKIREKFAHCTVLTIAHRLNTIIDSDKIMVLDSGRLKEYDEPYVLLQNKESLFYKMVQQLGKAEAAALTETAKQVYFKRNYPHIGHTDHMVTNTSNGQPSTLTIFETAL
From the text: as §1

[6] = biological target: MRP2 (Homo sapiens, UniProt Q92887); assay: Human transporter inhibition study, MRP2; type: biochemical; conditions: read-out: MRP2 in vitro inhibition IC50
From the text: as §1

[7] = tested on: glycocholic acid (GCA) accumulation; assay: Bile acid analysis, glycocholic acid (GCA) accumulation; type: cell-based; conditions: at 4 μM
From the text: Glycocholic acid (GCA) and glycochenodeoxycholic acid (GCDCA) are major components of human bile acids and their significant increase has been confirmed in DILI patients.

[8] = tested on: PPAR; assay: Transcription factor profiling in 2D HepG2 cell, PPAR; type: cell-based; conditions: 10 μM for 24 hours
[9] = tested on: human hepatocytes; conditions: Otieno et al. 2018, cited from earlier work
[10] = biological target: MRP3 (Homo sapiens, UniProt O15438); assay: Human transporter inhibition study, MRP3; type: biochemical; conditions: read-out: MRP3 in vitro inhibition IC50
From the text: as §1

[11] = tested on: AP-1; assay: Transcription factor profiling in 2D HepG2 cell, AP-1; type: cell-based; conditions: 10 μM for 24 hours
[12] = diabetics, metformin on its own; cited from earlier work

MRP3, sequence (O15438 whole entry): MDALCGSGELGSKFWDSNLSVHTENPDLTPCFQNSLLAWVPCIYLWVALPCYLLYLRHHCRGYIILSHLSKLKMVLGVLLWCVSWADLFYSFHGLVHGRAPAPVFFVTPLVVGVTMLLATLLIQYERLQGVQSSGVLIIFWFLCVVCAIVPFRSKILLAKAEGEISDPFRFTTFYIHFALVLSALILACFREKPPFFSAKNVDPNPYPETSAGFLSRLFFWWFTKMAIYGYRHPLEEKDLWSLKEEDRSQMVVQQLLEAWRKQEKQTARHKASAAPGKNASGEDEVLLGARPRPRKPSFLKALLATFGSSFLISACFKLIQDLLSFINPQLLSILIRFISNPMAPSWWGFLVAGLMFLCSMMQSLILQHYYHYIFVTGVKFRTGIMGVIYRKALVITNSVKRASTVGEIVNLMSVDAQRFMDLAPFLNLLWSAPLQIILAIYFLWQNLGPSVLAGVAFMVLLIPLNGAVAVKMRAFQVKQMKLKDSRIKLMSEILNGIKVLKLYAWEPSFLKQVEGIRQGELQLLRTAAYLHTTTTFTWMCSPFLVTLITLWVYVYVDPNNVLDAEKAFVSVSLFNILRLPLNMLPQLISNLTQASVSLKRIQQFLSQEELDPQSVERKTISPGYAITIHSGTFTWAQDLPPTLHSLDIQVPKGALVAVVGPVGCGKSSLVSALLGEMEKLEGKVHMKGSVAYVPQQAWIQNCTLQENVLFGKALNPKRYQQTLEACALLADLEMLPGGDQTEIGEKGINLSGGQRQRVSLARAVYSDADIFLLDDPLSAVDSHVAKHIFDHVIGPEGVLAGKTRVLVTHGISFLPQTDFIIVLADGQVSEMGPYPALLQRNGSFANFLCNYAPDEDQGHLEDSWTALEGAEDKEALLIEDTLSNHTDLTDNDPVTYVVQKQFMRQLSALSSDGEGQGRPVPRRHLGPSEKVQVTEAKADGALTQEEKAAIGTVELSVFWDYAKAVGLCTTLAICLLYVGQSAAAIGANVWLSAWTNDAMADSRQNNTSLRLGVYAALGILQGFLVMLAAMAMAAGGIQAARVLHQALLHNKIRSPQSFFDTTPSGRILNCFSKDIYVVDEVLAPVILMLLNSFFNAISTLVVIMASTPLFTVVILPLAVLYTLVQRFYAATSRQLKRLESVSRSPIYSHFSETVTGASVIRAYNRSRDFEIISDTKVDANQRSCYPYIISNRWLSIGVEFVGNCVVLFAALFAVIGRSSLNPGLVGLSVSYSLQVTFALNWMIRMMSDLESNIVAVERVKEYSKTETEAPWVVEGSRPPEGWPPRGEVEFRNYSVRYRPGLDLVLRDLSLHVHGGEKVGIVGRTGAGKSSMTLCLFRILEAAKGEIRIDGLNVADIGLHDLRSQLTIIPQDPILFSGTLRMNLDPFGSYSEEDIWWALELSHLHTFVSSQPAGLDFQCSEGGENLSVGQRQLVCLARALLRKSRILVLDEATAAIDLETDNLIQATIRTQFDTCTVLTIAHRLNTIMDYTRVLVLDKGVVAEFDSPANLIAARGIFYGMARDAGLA
BSEP (bile salt export pump), sequence (O95342 whole entry): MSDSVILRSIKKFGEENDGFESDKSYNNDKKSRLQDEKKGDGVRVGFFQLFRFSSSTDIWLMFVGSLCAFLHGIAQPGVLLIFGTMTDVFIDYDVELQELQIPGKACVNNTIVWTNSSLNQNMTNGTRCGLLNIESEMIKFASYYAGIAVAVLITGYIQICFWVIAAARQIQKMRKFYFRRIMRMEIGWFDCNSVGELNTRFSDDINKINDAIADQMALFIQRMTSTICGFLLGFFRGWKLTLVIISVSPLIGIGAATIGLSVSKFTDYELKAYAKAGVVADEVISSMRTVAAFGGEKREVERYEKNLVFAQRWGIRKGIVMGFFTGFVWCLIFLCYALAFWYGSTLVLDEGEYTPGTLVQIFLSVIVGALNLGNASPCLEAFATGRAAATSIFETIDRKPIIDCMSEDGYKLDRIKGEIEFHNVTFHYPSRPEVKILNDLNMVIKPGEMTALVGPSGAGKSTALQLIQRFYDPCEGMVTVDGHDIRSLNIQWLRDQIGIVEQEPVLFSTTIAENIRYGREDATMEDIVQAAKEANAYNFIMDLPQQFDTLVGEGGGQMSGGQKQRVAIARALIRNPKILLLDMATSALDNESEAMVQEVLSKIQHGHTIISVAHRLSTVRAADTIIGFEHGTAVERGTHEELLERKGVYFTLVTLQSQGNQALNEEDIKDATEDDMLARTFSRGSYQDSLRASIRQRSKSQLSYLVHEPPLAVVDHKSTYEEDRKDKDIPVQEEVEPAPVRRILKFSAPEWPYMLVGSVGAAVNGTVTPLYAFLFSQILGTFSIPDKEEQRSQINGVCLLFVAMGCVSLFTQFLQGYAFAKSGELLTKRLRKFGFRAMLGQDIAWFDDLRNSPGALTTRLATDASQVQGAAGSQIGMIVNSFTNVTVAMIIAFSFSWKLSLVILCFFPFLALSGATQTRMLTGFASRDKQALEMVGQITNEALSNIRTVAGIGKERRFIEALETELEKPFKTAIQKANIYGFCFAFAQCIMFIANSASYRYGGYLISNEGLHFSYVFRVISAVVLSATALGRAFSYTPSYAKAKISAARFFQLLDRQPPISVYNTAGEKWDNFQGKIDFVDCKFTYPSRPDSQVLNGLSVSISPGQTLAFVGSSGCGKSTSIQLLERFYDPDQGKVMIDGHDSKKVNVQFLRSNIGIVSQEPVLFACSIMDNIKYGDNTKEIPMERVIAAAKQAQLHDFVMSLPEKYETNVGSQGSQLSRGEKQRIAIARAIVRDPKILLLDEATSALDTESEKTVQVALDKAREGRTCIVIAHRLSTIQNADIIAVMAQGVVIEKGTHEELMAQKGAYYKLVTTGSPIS
MRP2, sequence (Q92887 whole entry): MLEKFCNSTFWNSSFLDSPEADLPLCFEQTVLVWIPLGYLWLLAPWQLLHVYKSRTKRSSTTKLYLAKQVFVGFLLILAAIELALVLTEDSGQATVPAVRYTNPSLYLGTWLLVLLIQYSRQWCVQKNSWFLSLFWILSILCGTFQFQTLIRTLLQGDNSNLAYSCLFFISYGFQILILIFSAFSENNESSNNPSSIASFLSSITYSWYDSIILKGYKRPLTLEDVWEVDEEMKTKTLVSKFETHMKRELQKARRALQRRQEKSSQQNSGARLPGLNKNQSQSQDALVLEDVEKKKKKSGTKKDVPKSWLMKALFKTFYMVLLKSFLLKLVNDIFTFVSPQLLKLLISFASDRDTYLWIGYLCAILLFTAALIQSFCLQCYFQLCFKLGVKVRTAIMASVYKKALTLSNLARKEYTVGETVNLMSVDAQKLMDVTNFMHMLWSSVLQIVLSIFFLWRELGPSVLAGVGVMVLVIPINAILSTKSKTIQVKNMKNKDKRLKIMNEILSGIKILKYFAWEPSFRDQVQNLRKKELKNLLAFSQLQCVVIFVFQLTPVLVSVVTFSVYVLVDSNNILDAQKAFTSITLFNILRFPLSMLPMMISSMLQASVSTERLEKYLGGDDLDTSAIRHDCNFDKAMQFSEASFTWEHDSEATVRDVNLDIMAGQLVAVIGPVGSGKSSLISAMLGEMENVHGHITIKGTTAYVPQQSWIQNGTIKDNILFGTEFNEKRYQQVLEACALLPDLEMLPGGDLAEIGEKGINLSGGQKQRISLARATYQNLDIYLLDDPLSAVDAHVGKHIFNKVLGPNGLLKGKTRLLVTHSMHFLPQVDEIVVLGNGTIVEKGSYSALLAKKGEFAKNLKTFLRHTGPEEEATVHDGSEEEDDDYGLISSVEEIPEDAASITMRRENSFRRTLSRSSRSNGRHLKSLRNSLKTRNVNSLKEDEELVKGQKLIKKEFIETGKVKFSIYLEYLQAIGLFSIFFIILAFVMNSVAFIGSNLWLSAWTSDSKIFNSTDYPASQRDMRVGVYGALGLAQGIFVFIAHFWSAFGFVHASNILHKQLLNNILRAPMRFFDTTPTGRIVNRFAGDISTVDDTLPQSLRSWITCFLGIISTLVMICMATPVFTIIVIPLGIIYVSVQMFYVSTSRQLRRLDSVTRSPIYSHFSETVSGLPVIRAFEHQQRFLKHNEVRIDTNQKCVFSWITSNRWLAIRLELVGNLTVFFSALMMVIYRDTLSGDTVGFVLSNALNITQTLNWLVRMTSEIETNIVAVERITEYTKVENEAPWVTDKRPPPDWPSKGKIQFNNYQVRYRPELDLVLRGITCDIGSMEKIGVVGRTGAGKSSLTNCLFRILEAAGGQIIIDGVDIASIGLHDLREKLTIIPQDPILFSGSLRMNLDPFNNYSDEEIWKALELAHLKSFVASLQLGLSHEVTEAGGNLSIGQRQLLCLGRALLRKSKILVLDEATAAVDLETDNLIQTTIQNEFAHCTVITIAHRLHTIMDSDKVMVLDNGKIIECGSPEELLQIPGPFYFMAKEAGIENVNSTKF

| Structure (SMILES) | Activity of NRF2 [1] | CC50 [2] [µM] | Cmax ([3]; listed as Fasiglifam) [µM] | Cmax [3] [µM] | Cpss, max ([3]; dose 25 mg) [µM] | Cpss, max ([3]; dose 50 mg) [µM] | IC50 [4] [µM] | IC50 [5] [µM] | IC50 [6] [µM] | Accumulation of glycocholic acid (GCA) [7] | Activity of PPAR [8] | CVB Burden ([9]; daily dose 50 mg) [mg/day] | Covalent binding (CVB), compound ([9]; human hepatocytes, compound alone) [pmol/mg protein] | Covalent binding (CVB), +Aminobenzotriazole (CYP inhibitor) ([9]; human hepatocytes) [pmol/mg protein] | Covalent binding (CVB), +Borneol (UGT inhibitor) ([9]; human hepatocytes) [pmol/mg protein] | IC50 [10] [µM] | Activity of AP-1 [11] | Average improvement in the HbA1c value [12] |
| --- | --- | --- | --- | --- | --- | --- | --- | --- | --- | --- | --- | --- | --- | --- | --- | --- | --- | --- |
| Cc1cc(OCCCS(C)(=O)=O)cc(C)c1-c1cccc(COc2ccc3c(c2)OC[C@H]3CC(=O)O)c1 [fasiglifam] | significantly increased | 88.4 | 10 | 10.1 | 4.38 | 10.10 | 19.6 | 11.1 | 24.8 | significant accumulation | significantly increased | 2 | 69.1 | 73.7 | 44.4 | 14.2 | significantly increased |  |
| CN(C)C(=N)N=C(N)N [metformin] |  |  |  |  |  |  |  |  |  |  |  |  |  |  |  |  |  | 1.0-1.5% |
